Data published in PMC6480424, “Hydrophobic Amines and Their Guanidine Analogues Modulate Activation and Desensitization of ASIC3” (International Journal of Molecular Sciences, 2019).

How the values were obtained:
Format in all cases: cell-based
[1] = molecular target: T1, ASIC3 (acid-sensing ion channel 3) (Rattus norvegicus, UniProt O35240); test: whole-cell patch clamp, sustained current inhibition by […] at pH […]; conditions: read-out: % inhibition at 0.5 mM
T1 construct: homomeric rat ASIC3 expressed in CHO cells
T1 sequence (O35240 1-533): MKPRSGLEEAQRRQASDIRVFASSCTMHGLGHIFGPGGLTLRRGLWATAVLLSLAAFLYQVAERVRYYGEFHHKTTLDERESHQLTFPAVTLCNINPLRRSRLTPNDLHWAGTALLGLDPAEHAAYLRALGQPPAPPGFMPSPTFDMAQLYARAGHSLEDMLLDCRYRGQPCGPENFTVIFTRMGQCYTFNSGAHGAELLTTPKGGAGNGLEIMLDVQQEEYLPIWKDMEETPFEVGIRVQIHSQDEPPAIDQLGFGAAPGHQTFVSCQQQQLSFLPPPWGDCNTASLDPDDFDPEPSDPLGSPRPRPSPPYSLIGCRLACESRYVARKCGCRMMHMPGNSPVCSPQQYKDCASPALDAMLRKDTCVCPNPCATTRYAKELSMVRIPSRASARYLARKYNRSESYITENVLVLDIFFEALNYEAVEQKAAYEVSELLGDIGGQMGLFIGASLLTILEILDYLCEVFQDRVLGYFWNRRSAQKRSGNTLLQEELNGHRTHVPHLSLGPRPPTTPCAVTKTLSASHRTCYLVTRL

[2] = molecular target: T1, ASIC3 (acid-sensing ion channel 3); test: whole-cell patch clamp, peak current inhibition at pH […]
[3] = molecular target: T1, ASIC3 (acid-sensing ion channel 3); test: whole-cell patch clamp at […], acidic shift of activation
[4] = molecular target: T1, ASIC3 (acid-sensing ion channel 3); test: whole-cell patch clamp, sustained current potentiation by […] at pH […]; conditions: read-out: % potentiation at 0.5 mM
[5] = molecular target: T1, ASIC3 (acid-sensing ion channel 3); test: whole-cell patch clamp, peak inhibition and sustained potentiation, on/tail currents
[6] = molecular target: T1, ASIC3 (acid-sensing ion channel 3); test: whole-cell patch clamp, sustained current inhibition at pH […]

With `N=C(N)NC12CC3CC(CC(C3)C1)C2` [IEM-2151] the inhibition at 500 µM [1] was 29 ± 4%.
For `N=C(N)NCCC1(c2ccccc2)CCCCC1` [IEM-2195], the IC50 [2] was 21 ± 15 µM.
`CN(C)CCC=C1c2ccccc2CCc2ccccc21` [amitriptyline] was tested, and the “whole-cell patch clamp at 500 μM, acidic shift of activation” value [3] was “IEM-2044 and amitriptyline have opposite effects on different channels, inducing an alkaline shift of activation on ASIC1a”.
In the case of `NC1c2ccccc2-c2ccccc21` [IEM-2117], the activation at 500 µM [4] is reported as 498 ± 196%.
With `Nc1c2ccccc2nc2ccccc12` [9AA, 9-aminoacridine] the “whole-cell patch clamp, peak inhibition and sustained potentiation, on/tail curr” value [5] was 9-Aminoacridine and IEM-2044, which inhibit peak and potentiate the sustained component of the response.
With `NCCC1(c2ccccc2)CCCCC1` [IEM-2044] the “whole-cell patch clamp, peak inhibition and sustained potentiation, on/tail curr” value [5] was 9-Aminoacridine and IEM-2044, which inhibit peak and potentiate the sustained component of the response.
Compound `CC12CC3CC(C)(C1)CC(NC(=N)N)(C3)C2` [IEM-2163] has an IC50 [6] of 117 ± 5.6 µM.
